Assay results taken from patent publication US20150296790A1, “SILICON-CONTAINING COMPOUND AQUEOUS SOLUTION AND ANTIBACTERIAL/ANTIVIRAL AGENT INCLUDING SAID SOLUTION” (JEX CO., LTD., priority 2012, published 2015).

Assay: Solubility of Silicon-Containing Compound E in aqueous CD solutions (clarity and stability, visual)
Assay type: physicochemical
Parameters: key to Solubility of Compound E: Stability: OK: When the aqueous solutions of the CD and the Silicon-Containing Compound E did not exhibit the conditions such as presence of precipitates and deposits, the solutions were considered as stable; NG: When the aqueous solutions of the CD and the Silicon-Containing Compound E exhibited the conditions such as presence of precipitates and deposits, the solutions were not considered as stable; key to Solubility of Compound E: Clarity: When the aqueous solutions of the CD and the Silicon-Containing Compound E were clear, the solutions were rated as “OK”; When the aqueous solutions of the CD and the Silicon-Containing Compound E were not clear, the solutions were rated as “NG”
Settings: purified water
Protocol: To determine “Solubility of Compound E” in the tables, the Silicon-Containing Compound E as another solute was added at respective ratios shown in the respective tables (see “Ratio of Compound E” in the tables) to the respective aqueous CD solutions after evaluation of the solubility of CD, and then the mixture was stirred on a shaker to prepare the respective aqueous solutions of the CD and the Silicon-Containing Compound E. Immediately after preparation of the aqueous solutions of the CD and the Silicon-Containing Compound E, the clarity of the aqueous solutions was visually evaluated. When the aqueous solutions of the CD and the Silicon-Containing Compound E were clear, the solutions were rated as “OK”. When the aqueous solutions of the CD and the Silicon-Containing Compound E were not clear, the solutions were rated as “NG”. “Stability” in “Solubility of Compound E” in the tables was determined by allowing the respective aqueous solutions of the CD and the Silicon-Containing Compound E after preparation to stand at ambient temperature for a predetermined period and then visually evaluating the conditions (such as presence of precipitates and deposits) of the solutions.

[1] = β-CD 1 w/w %, Compound E 0.3 w/w %
[2] = β-CD 1 w/w %, Compound E 0.4 w/w %
[3] = β-CD 1 w/w %, Compound E 0.5 w/w %
[4] = β-CD 1 w/w %, Compound E 0.6 w/w %
[5] = β-CD 1 w/w %, Compound E 0.7 w/w %
[6] = β-CD 1 w/w %, Compound E 0.8 w/w %
[7] = β-CD 1 w/w %, Compound E 0.9 w/w %
[8] = β-CD 1 w/w %, Compound E 1 w/w %
[9] = γ-CD 1 w/w %, Compound E 0.1 w/w %
[10] = γ-CD 1 w/w %, Compound E 0.2 w/w %
[11] = γ-CD 1 w/w %, Compound E 0.3 w/w %
[12] = γ-CD 1 w/w %, Compound E 0.4 w/w %
[13] = γ-CD 1 w/w %, Compound E 0.5 w/w %
[14] = γ-CD 1 w/w %, Compound E 0.6 w/w %
[15] = γ-CD 1 w/w %, Compound E 0.7 w/w %
[16] = γ-CD 1 w/w %, Compound E 0.8 w/w %
[17] = γ-CD 1 w/w %, Compound E 0.9 w/w %
[18] = γ-CD 1 w/w %, Compound E 1 w/w %
[19] = γ-CD 3 w/w %, Compound E 0.1 w/w %
[20] = γ-CD 3 w/w %, Compound E 0.2 w/w %
[21] = γ-CD 3 w/w %, Compound E 0.3 w/w %
[22] = γ-CD 3 w/w %, Compound E 0.4 w/w %
[23] = γ-CD 3 w/w %, Compound E 0.5 w/w %
[24] = γ-CD 3 w/w %, Compound E 0.6 w/w %
[25] = γ-CD 3 w/w %, Compound E 0.7 w/w %
[26] = γ-CD 3 w/w %, Compound E 0.8 w/w %
[27] = γ-CD 3 w/w %, Compound E 0.9 w/w %
[28] = γ-CD 3 w/w %, Compound E 1 w/w %
[29] = γ-CD 6 w/w %, Compound E 0.1 w/w %
[30] = γ-CD 6 w/w %, Compound E 0.2 w/w %
[31] = γ-CD 6 w/w %, Compound E 0.3 w/w %
[32] = γ-CD 6 w/w %, Compound E 0.4 w/w %
[33] = γ-CD 6 w/w %, Compound E 0.5 w/w %
[34] = γ-CD 6 w/w %, Compound E 0.6 w/w %
[35] = γ-CD 6 w/w %, Compound E 0.7 w/w %
[36] = γ-CD 6 w/w %, Compound E 0.8 w/w %
[37] = γ-CD 6 w/w %, Compound E 0.9 w/w %
[38] = γ-CD 6 w/w %, Compound E 1 w/w %
[39] = γ-CD 10 w/w %, Compound E 0.1 w/w %
[40] = γ-CD 10 w/w %, Compound E 0.2 w/w %
[41] = γ-CD 10 w/w %, Compound E 0.3 w/w %
[42] = γ-CD 10 w/w %, Compound E 0.4 w/w %
[43] = γ-CD 10 w/w %, Compound E 0.5 w/w %
[44] = γ-CD 10 w/w %, Compound E 0.6 w/w %
[45] = γ-CD 10 w/w %, Compound E 0.7 w/w %
[46] = γ-CD 10 w/w %, Compound E 0.8 w/w %
[47] = γ-CD 10 w/w %, Compound E 0.9 w/w %
[48] = γ-CD 10 w/w %, Compound E 1 w/w %

In the case of `CCCCCCCCCCCCCCCCCC[N+](C)(C)CCC[Si](OCC)(OCC)OCC.[Cl-]` [Compound E, Octadecyl dimethyl(3-triethoxysilylpropyl)ammonium chloride], the “Solubility of Compound E: Stability” value (β-CD 1 w/w %, Compound E 0.2 w/w %) is reported as “OK”, the “Solubility of Compound E: Clarity” value [1] is reported as “NG” and the “Solubility of Compound E: Stability” value [1] is reported as “OK”. The “Solubility of Compound E: Clarity” value [2] was “NG”, the “Solubility of Compound E: Stability” value [2] was “OK” and the “Solubility of Compound E: Clarity” value [3] was “NG”. The “Solubility of Compound E: Stability” value [3] was “OK”, the “Solubility of Compound E: Clarity” value [4] was “NG” and the “Solubility of Compound E: Stability” value [4] was “OK”. For the same compound, the “Solubility of Compound E: Clarity” value [5] was “NG”, the “Solubility of Compound E: Stability” value [5] was “OK” and the “Solubility of Compound E: Clarity” value [6] was “NG”. For the same compound, the “Solubility of Compound E: Stability” value [6] was “OK”, the “Solubility of Compound E: Clarity” value [7] was “NG” and the “Solubility of Compound E: Stability” value [7] was “OK”. For the same compound, the “Solubility of Compound E: Clarity” value [8] was “NG”, the “Solubility of Compound E: Stability” value [8] was “OK” and the “Solubility of Compound E: Clarity” value [9] was “OK”. For the same compound, the “Solubility of Compound E: Stability” value [9] was “OK”, the “Solubility of Compound E: Clarity” value [10] was “OK” and the “Solubility of Compound E: Stability” value [10] was “OK”. The “Solubility of Compound E: Clarity” value [11] was “OK”, the “Solubility of Compound E: Stability” value [11] was “OK” and the “Solubility of Compound E: Clarity” value [12] was “OK”. The “Solubility of Compound E: Stability” value [12] was “OK”, the “Solubility of Compound E: Clarity” value [13] was “NG” and the “Solubility of Compound E: Stability” value [13] was “OK”. For the same compound, the “Solubility of Compound E: Clarity” value [14] was “NG”, the “Solubility of Compound E: Stability” value [14] was “OK” and the “Solubility of Compound E: Clarity” value [15] was “NG”. For the same compound, the “Solubility of Compound E: Stability” value [15] was “OK”, the “Solubility of Compound E: Clarity” value [16] was “NG” and the “Solubility of Compound E: Stability” value [16] was “OK”. For the same compound, the “Solubility of Compound E: Clarity” value [17] was “NG”, the “Solubility of Compound E: Stability” value [17] was “OK” and the “Solubility of Compound E: Clarity” value [18] was “NG”. The “Solubility of Compound E: Stability” value [18] was “OK”, the “Solubility of Compound E: Clarity” value [19] was “NG” and the “Solubility of Compound E: Stability” value [19] was “OK”. For the same compound, the “Solubility of Compound E: Clarity” value [20] was “NG”, the “Solubility of Compound E: Stability” value [20] was “OK” and the “Solubility of Compound E: Clarity” value [21] was “NG”. For the same compound, the “Solubility of Compound E: Stability” value [21] was “OK”, the “Solubility of Compound E: Clarity” value [22] was “NG” and the “Solubility of Compound E: Stability” value [22] was “OK”. The “Solubility of Compound E: Clarity” value [23] was “NG”, the “Solubility of Compound E: Stability” value [23] was “OK” and the “Solubility of Compound E: Clarity” value [24] was “NG”. For the same compound, the “Solubility of Compound E: Stability” value [24] was “OK”, the “Solubility of Compound E: Clarity” value [25] was “NG” and the “Solubility of Compound E: Stability” value [25] was “OK”. The “Solubility of Compound E: Clarity” value [26] was “NG”, the “Solubility of Compound E: Stability” value [26] was “OK” and the “Solubility of Compound E: Clarity” value [27] was “NG”. For the same compound, the “Solubility of Compound E: Stability” value [27] was “OK”, the “Solubility of Compound E: Clarity” value [28] was “NG” and the “Solubility of Compound E: Stability” value [28] was “OK”. For the same compound, the “Solubility of Compound E: Clarity” value [29] was “NG”, the “Solubility of Compound E: Stability” value [29] was “OK” and the “Solubility of Compound E: Clarity” value [30] was “NG”. For the same compound, the “Solubility of Compound E: Stability” value [30] was “OK”, the “Solubility of Compound E: Clarity” value [31] was “NG” and the “Solubility of Compound E: Stability” value [31] was “OK”. For the same compound, the “Solubility of Compound E: Clarity” value [32] was “NG”, the “Solubility of Compound E: Stability” value [32] was “OK” and the “Solubility of Compound E: Clarity” value [33] was “NG”. The “Solubility of Compound E: Stability” value [33] was “OK”, the “Solubility of Compound E: Clarity” value [34] was “NG” and the “Solubility of Compound E: Stability” value [34] was “OK”. For the same compound, the “Solubility of Compound E: Clarity” value [35] was “NG”, the “Solubility of Compound E: Stability” value [35] was “OK” and the “Solubility of Compound E: Clarity” value [36] was “NG”. The “Solubility of Compound E: Stability” value [36] was “OK”, the “Solubility of Compound E: Clarity” value [37] was “NG” and the “Solubility of Compound E: Stability” value [37] was “OK”. For the same compound, the “Solubility of Compound E: Clarity” value [38] was “NG”, the “Solubility of Compound E: Stability” value [38] was “OK” and the “Solubility of Compound E: Clarity” value [39] was “NG”. The “Solubility of Compound E: Stability” value [39] was “NG”, the “Solubility of Compound E: Clarity” value [40] was “NG” and the “Solubility of Compound E: Stability” value [40] was “NG”. For the same compound, the “Solubility of Compound E: Clarity” value [41] was “NG”, the “Solubility of Compound E: Stability” value [41] was “NG” and the “Solubility of Compound E: Clarity” value [42] was “NG”. The “Solubility of Compound E: Stability” value [42] was “NG”, the “Solubility of Compound E: Clarity” value [43] was “NG” and the “Solubility of Compound E: Stability” value [43] was “NG”. For the same compound, the “Solubility of Compound E: Clarity” value [44] was “NG”, the “Solubility of Compound E: Stability” value [44] was “NG” and the “Solubility of Compound E: Clarity” value [45] was “NG”. For the same compound, the “Solubility of Compound E: Stability” value [45] was “NG”, the “Solubility of Compound E: Clarity” value [46] was “NG” and the “Solubility of Compound E: Stability” value [46] was “NG”. The “Solubility of Compound E: Clarity” value [47] was “NG”, the “Solubility of Compound E: Stability” value [47] was “NG” and the “Solubility of Compound E: Clarity” value [48] was “NG”. The “Solubility of Compound E: Stability” value [48] was “NG”.
